This is an account of results in ChEMBL document CHEMBL4715882, “Evaluation of pyrrolidine-based analog of jaspine B as potential SphK1 inhibitors against rheumatoid arthritis” (Bioorg Med Chem Lett, 2021).

Structures are written as SMILES. The source made the active and inactive calls. No cut-off for these calls is given here.

Test [1] is described as follows: Antiinflammatory activity against LPS-induced HFLS-RA cells. The class given is functional, cell-based, Homo sapiens.
In test [2] the test system is Rattus norvegicus. Nature of the test: Antiinflammatory activity against CFA-induced rheumatoid arthritis Wistar rat model assessed as decrease in IL-1beta level at 30 mg/kg, ig measured after 28 days. The class given is functional, organism-based. The conditions noted are these: time 28.0 day.
The subject of test [3] is HFLS-RA. The test is described as follows: Antiinflammatory activity against LPS-induced HFLS-RA cells assessed as reduction in IL-1alpha expression. The class given is functional, cell-based. As to conditions: Homo sapiens, dose 5-20 µM.
In test [4] the test system is HFLS-RA. The test is described as follows: Antiinflammatory activity against LPS-induced HFLS-RA cells assessed as reduction in IL-1beta expression. In kind it is functional, cell-based. The conditions noted are these: Homo sapiens, dose 5-20 µM.
Test [5] deals with HFLS-RA. Nature of the test: Antiinflammatory activity against LPS-induced HFLS-RA cells assessed as reduction in IL-6 expression. As to conditions: Homo sapiens, dose 5-20 µM. The class given is functional, cell-based.
Test [6] has as its system HFLS-RA. Nature of the test: Antiinflammatory activity against LPS-induced HFLS-RA cells assessed as reduction in TNF-alpha expression. The class given is functional, cell-based. As to conditions: Homo sapiens, dose 5-20 µM.
The subject of test [7] is Rattus norvegicus. The test is described as follows: Antiarthritic activity in CFA-induced rheumatoid arthritis Wistar rat model assessed as reduction in arthritis index at 30 mg/kg, ig for 28 days. The class given is functional, organism-based. The conditions noted are these: time 28.0 day.
Test [8] deals with Rattus norvegicus. Nature of the test: Antiarthritic activity in CFA-induced rheumatoid arthritis Wistar rat model assessed as reduction in foot swelling at 30 mg/kg, ig measured after 21 to 28 days. The class given is functional, organism-based. The conditions noted are these: time 21-28 day.
Test [9] deals with Rattus norvegicus. The test is described as follows: Antiarthritic activity in CFA-induced rheumatoid arthritis Wistar rat model assessed as increase in weight at 30 mg/kg, ig measured after 14 to 28 days. As to conditions: time 14-28 day. The class given is functional, organism-based.
For test [10], the system named is Rattus norvegicus. The test is described as follows: Antiinflammatory activity against CFA-induced rheumatoid arthritis Wistar rat model assessed as decrease in cell infiltration at 30 mg/kg, ig after 28 days. The class given is functional, organism-based. The conditions noted are these: time 28.0 day.
The subject of test [11] is Rattus norvegicus. The test is described as follows: Antiinflammatory activity against CFA-induced rheumatoid arthritis Wistar rat model assessed as decrease in TNFalpha level at 30 mg/kg, ig measured after 28 days. In kind it is functional, organism-based. As to conditions: time 28.0 day.
Test [12] deals with Rattus norvegicus. The test is described as follows: Antiinflammatory activity against CFA-induced rheumatoid arthritis Wistar rat model assessed as decrease in IL6 level at 30 mg/kg, ig measured after 28 days. In kind it is functional, organism-based. The conditions noted are these: time 28.0 day.
Test [13] deals with Rattus norvegicus. The test is described as follows: Antiinflammatory activity against CFA-induced rheumatoid arthritis Wistar rat model assessed as decrease in spleen index at 30 mg/kg, ig measured after 28 days. The class given is functional, organism-based. As to conditions: time 28.0 day.
Test [14] relates to Rattus norvegicus. The test is described as follows: Antiinflammatory activity against CFA-induced rheumatoid arthritis Wistar rat model assessed as decrease in paw swelling at 30 mg/kg, ig after 28 days. In kind it is functional, organism-based. The conditions noted are these: time 28.0 day.
Test [15] deals with Rattus norvegicus. Nature of the test: Antiinflammatory activity against CFA-induced rheumatoid arthritis Wistar rat model assessed as decrease in synovial hyperplasia at 30 mg/kg, ig after 28 days. The class given is functional, organism-based. The conditions noted are these: time 28.0 day.
In test [16] the test system is Rattus norvegicus. Nature of the test: Antiinflammatory activity against CFA-induced rheumatoid arthritis Wistar rat model assessed as decrease in cartilage damage at 30 mg/kg, ig after 28 days. As to conditions: time 28.0 day. The class given is functional, organism-based.
A further test addresses Sphingosine kinase 1 (Homo sapiens, UniProt Q9NYA1). The test is described as follows: Inhibition of SphK1 (unknown origin).
The next test has as its target T1, Sphingosine kinase 2 (Homo sapiens, UniProt Q9NRA0).
T1 sequence (Q9NRA0 whole entry): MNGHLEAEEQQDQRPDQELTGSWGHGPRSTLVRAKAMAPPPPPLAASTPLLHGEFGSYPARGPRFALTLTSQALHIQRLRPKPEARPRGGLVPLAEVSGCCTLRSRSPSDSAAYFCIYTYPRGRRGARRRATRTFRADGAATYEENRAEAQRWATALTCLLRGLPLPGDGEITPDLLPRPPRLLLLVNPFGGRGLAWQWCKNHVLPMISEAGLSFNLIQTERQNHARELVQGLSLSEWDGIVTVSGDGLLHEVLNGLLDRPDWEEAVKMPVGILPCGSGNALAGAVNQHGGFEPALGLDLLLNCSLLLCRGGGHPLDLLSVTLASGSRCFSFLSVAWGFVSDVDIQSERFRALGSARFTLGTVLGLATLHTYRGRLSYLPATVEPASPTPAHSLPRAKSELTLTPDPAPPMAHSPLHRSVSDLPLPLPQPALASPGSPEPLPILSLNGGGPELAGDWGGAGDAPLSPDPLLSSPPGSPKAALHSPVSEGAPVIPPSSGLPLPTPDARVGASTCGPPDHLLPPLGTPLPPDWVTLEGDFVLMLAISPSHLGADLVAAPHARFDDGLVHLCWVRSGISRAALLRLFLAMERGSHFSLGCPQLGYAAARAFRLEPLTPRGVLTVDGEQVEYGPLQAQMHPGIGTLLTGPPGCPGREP
Nature of the test: Inhibition of SphK2 (unknown origin).

Test [17] relates to Rattus norvegicus. The test is described as follows: Antiarthritic activity in CFA-induced rheumatoid arthritis Wistar rat model assessed as reduction in arthritis index at 3 mg/kg, ig for 28 days. In kind it is functional, organism-based. As to conditions: time 28.0 day.
Test [18] relates to Rattus norvegicus. The test is described as follows: Antiarthritic activity in CFA-induced rheumatoid arthritis Wistar rat model assessed as reduction in foot swelling at 3 mg/kg, ig measured after 21 to 28 days. The class given is functional, organism-based. The conditions noted are these: time 21-28 day.
Test [19] relates to Rattus norvegicus. The test is described as follows: Antiarthritic activity in CFA-induced rheumatoid arthritis Wistar rat model assessed as increase in weight at 3 mg/kg, ig measured after 14 to 28 days. In kind it is functional, organism-based. As to conditions: time 14-28 day.
Test [20] deals with Rattus norvegicus. The test is described as follows: Antiinflammatory activity against CFA-induced rheumatoid arthritis Wistar rat model assessed as decrease in IL-1beta level at 3 mg/kg, ig measured after 28 days. In kind it is functional, organism-based. The conditions noted are these: time 28.0 day.
In test [21] the test system is Rattus norvegicus. The test is described as follows: Antiinflammatory activity against CFA-induced rheumatoid arthritis Wistar rat model assessed as decrease in TNFalpha level at 3 mg/kg, ig measured after 28 days. In kind it is functional, organism-based. As to conditions: time 28.0 day.
Test [22] concerns Rattus norvegicus. The test is described as follows: Antiinflammatory activity against CFA-induced rheumatoid arthritis Wistar rat model assessed as decrease in IL6 level at 3 mg/kg, ig measured after 28 days. In kind it is functional, organism-based. As to conditions: time 28.0 day.
The test system of test [23] is Rattus norvegicus. Nature of the test: Antiinflammatory activity against CFA-induced rheumatoid arthritis Wistar rat model assessed as decrease in spleen index at 3 mg/kg, ig measured after 28 days. In kind it is functional, organism-based. As to conditions: time 28.0 day.
Test [24] relates to Rattus norvegicus. The test is described as follows: Antiinflammatory activity against CFA-induced rheumatoid arthritis Wistar rat model assessed as decrease in synovial hyperplasia at 3 mg/kg, ig after 28 days. In kind it is functional, organism-based. The conditions noted are these: time 28.0 day.
Test [25] deals with Rattus norvegicus. Nature of the test: Antiinflammatory activity against CFA-induced rheumatoid arthritis Wistar rat model assessed as decrease in cell infiltration at 3 mg/kg, ig after 28 days. In kind it is functional, organism-based. The conditions noted are these: time 28.0 day.
Test [26] relates to Rattus norvegicus. The test is described as follows: Antiinflammatory activity against CFA-induced rheumatoid arthritis Wistar rat model assessed as decrease in cartilage damage at 3 mg/kg, ig after 28 days. As to conditions: time 28.0 day. In kind it is functional, organism-based.

Sphingosine kinase 1, sequence (Q9NYA1 whole entry): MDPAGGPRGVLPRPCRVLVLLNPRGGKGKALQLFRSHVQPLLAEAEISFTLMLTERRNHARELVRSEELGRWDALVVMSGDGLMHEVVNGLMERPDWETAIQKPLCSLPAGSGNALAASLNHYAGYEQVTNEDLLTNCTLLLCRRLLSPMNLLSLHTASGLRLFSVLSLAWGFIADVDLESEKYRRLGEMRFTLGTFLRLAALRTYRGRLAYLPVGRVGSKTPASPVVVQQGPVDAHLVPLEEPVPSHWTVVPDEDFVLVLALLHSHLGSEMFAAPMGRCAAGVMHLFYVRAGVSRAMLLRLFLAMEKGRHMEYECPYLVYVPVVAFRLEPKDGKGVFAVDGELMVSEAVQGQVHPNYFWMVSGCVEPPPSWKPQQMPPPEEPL

Regarding `N[C@H]1CN[C@H](CCCCCCCCCOCc2ccccc2)[C@H]1O`, in test [1], it took 15.1 µM to reach half-maximal inhibition (IC50).
The same measure, in the same setting: as for `COc1ccc(COCCCCCCCCCC[C@H]2NC[C@H](N)[C@@H]2O)c(OC)c1`, the figure is 14.3 µM; as for `N[C@H]1CN[C@H](CCCCCCCCCCOCC2CCCCC2)[C@H]1O`, 51.2 µM; as for `CCCCCCCCCCCC[C@H]1NC[C@H](N)[C@@H]1O`, 94.8 µM.
With `CN(Cc1cnc2nc(N)nc(N)c2n1)c1ccc(C(=O)N[C@@H](CCC(=O)O)C(=O)O)cc1` [METHOTREXATE], the IC50 (in general, the concentration that gives 50% inhibition) in test [1] came out at 5.48 µM.
In the case of `CCCCCCCCCCCCCC[C@H]1NC[C@H](N)[C@@H]1O` [listing 1 of 3 here], the outcome with Rattus norvegicus [2], with Rattus norvegicus [7], in the test on Rattus norvegicus [8], in the test with Rattus norvegicus [9], in the test on Rattus norvegicus [10] and with Rattus norvegicus [11] was Active. The outcome in the test with Rattus norvegicus [12], in the test with Rattus norvegicus [13], with Rattus norvegicus [14], in the test on Rattus norvegicus [15] and in the test on Rattus norvegicus [16] was Active. Also, the Activity result in the test on HFLS-RA [3], with HFLS-RA [4], in the test on HFLS-RA [5] and in the test on HFLS-RA [6] was “Dose-dependent effect” each time.
`N[C@H]1CN[C@H](CCCCCCCCCCOCc2ccc(F)cc2)[C@H]1O`: in test [1], the half-maximal inhibitory concentration (IC50) was 10.7 µM.
For `CCCCCCCCCCCCCC[C@H]1NC[C@H](N)[C@@H]1O` [listing 2 of 3 here], the results for the IC50 (in test [1]; against Sphingosine kinase 1; at Sphingosine kinase 2) were 10.7 µM, over 100 µM and over 100 µM, respectively.
Regarding `CC(C)COCCCCCCCCCC[C@H]1NC[C@H](N)[C@@H]1O`, in test [1], the concentration for half-maximal inhibition (IC50) was 18.1 µM.
`N[C@H]1CN[C@H](CCCCCCCCCCCOC2CCOCC2)[C@H]1O` returned an IC50 in test [1] of 11.2 µM. Against the preceding compound, the IC50 is about 1.6-fold lower.
On to `CCCCCCCCCCCCCC[C@H]1NC[C@H](N)[C@@H]1O` [listing 3 of 3 here], for which the results for the IC50 (in test [1]; on Sphingosine kinase 1; against Sphingosine kinase 2) were 8.64 µM, 8.89 µM and over 100 µM, respectively.
As for `Cc1ccc(-c2cc(C(F)(F)F)nn2-c2ccc(S(N)(=O)=O)cc2)cc1`, the outcome with Rattus norvegicus [17], with Rattus norvegicus [18], in the test on Rattus norvegicus [19], in the test on Rattus norvegicus [20], with Rattus norvegicus [21] and in the test with Rattus norvegicus [22] was Active. In addition, the outcome with Rattus norvegicus [23], in the test with Rattus norvegicus [24], in the test with Rattus norvegicus [25] and in the test on Rattus norvegicus [26] was Active.
As to `N[C@H]1CN[C@H](CCCCCCCCCCOO)[C@H]1O`, the IC50 in test [1] is 116 µM.
On the same count and under the same terms, under `CC(OCCCCCCCCCC[C@H]1NC[C@H](N)[C@@H]1O)c1ccccc1` (some centres not stated) stands 24.8 µM.
For `N#Cc1ccc(COCCCCCCCCCC[C@H]2NC[C@H](N)[C@@H]2O)cc1`, 10.2 µM corresponded to half-maximal inhibition in [1] (IC50).
`N[C@H]1CN[C@H](CCCCCCCCCCOCc2ccc(C(F)(F)F)cc2)[C@H]1O` displayed a half-inhibitory concentration (IC50) in test [1] of 19.6 µM.
Regarding `CC(OCCCCCCCCCC[C@H]1NC[C@H](N)[C@@H]1O)c1ccc(F)cc1` (some centres not stated), the IC50 in [1] amounted to 18.9 µM.
The compound `N[C@H]1CN[C@H](CCCCCCCCCOCC2CCCCC2)[C@H]1O` showed a 50% inhibitory concentration (IC50) in test [1] of 99.7 µM.
Same read-out and setting: under `Cc1c(F)c(F)c(COCCCCCCCCCC[C@H]2NC[C@H](N)[C@@H]2O)c(F)c1F` stands 11.4 µM; under `N[C@H]1CN[C@H](CCCCCCCCCCCOCC2CCCCC2)[C@H]1O`, 46.3 µM.
